# In DBAASP:
# Columns and labels:
# Assay in all cases: ≥ marks a high value that may be exact or a test limit, other limits are often not marked, values filed in µg/mL are converted to µM
# Staphylococcus aureus = system: Staphylococcus aureus
# Bacillus cereus = system: Bacillus cereus
# Escherichia coli = system: Escherichia coli
# Bacillus subtilis = system: Bacillus subtilis
Structure (SMILES),MIC (Staphylococcus aureus),MIC (Bacillus cereus),MIC (Escherichia coli),MIC (Bacillus subtilis)
CC(C)C[C@H](NC(=O)[C@@H](N)Cc1ccccc1)C(=O)NCC(=O)N[C@H](C(=O)N[C@H](C(=O)N[C@@H](Cc1ccccc1)C(=O)N[C@@H](CCCCN)C(=O)N[C@@H](CCCCN)C(=O)N[C@@H](C)C(=O)N[C@@H](CO)C(=O)N[C@@H](CCCCN)C(=O)N[C@H](C(=O)N[C@@H](Cc1ccccc1)C(=O)N1CCC[C@H]1C(=O)N[C@@H](CCCCN)C(=O)N[C@H](C(=O)N[C@@H](Cc1ccccc1)C(=O)NCC(=O)N[C@@H](CCCCN)C(=O)N[C@H](C(=O)O)C(C)C)C(C)C)C(C)C)C(C)C)C(C)C [FLGVVFKKASKVFPKVFGKV],> 57.5 µM,≥ 57.5 µM,57.5 µM,
CC[C@H](C)[C@H](NC(=O)[C@H](CC(C)C)NC(=O)[C@H](C)NC(=O)[C@@H]1CCCN1C(=O)[C@H](CC(C)C)NC(=O)CN)C(=O)N[C@@H](CC(C)C)C(=O)N[C@@H](Cc1c[nH]c2ccccc12)C(=O)N[C@H](C(=O)N[C@@H](CCCCN)C(=O)N[C@@H](CCCN=C(N)N)C(=O)N[C@@H](CCCCN)C(=O)N[C@@H](CCCN=C(N)N)C(=O)N[C@@H](CCC(N)=O)C(=O)N[C@@H](CCC(N)=O)C(N)=O)[C@@H](C)CC [GLPALILWIKRKRQQ],0.769 µM,,44.9 µM,0.352 µM
CC[C@H](C)[C@H](N)C(=O)N[C@@H](CC(N)=O)C(=O)N[C@@H](CO)C(=O)N[C@@H](CC(C)C)C(=O)N[C@@H](CCCCN)C(=O)N[C@@H](CC(C)C)C(=O)NCC(=O)N[C@@H](CCCCN)C(=O)N[C@@H](CCCCN)C(=O)N[C@H](C(=O)N[C@@H](CC(C)C)C(=O)NCC(=O)N[C@@H](C)C(=O)N[C@@H](CC(C)C)C(N)=O)[C@@H](C)CC [INSLKLGKKILGAL],,,> 100 µM,≥ 100 µM
CC[C@H](C)[C@H](NC(=O)[C@H](CCCCN)NC(=O)[C@H](Cc1ccccc1)NC(=O)[C@@H](NC(=O)[C@H](C)NC(=O)[C@@H]1CCCN1)C(C)C)C(=O)N[C@@H](C)C(=O)N[C@@H](CO)C(=O)N[C@@H](CCCCN)C(=O)N[C@H](C(=O)N[C@H](C(=O)N1CCC[C@H]1C(=O)N[C@@H](CO)C(=O)N[C@H](C(=O)N[C@@H](Cc1ccc(O)cc1)C(=O)N[C@@H](CS)C(=O)N[C@@H](CCCCN)C(=O)N[C@H](C(=O)N[C@@H](CO)C(=O)N[C@@H](CCCN=C(N)N)C(=O)O)C(C)C)C(C)C)C(C)C)C(C)C [PAVFKIASKVVPSVYCKVSR],,≥ 118 µM,58.8 µM,

# The next molecules have a lower MIC (Escherichia coli) than those just listed; values first:
MIC (Staphylococcus aureus),MIC (Bacillus cereus),MIC (Escherichia coli),MIC (Bacillus subtilis),Structure (SMILES)
30.3 µM,15.2 µM,30.3 µM,,CC(C)C[C@H](NC(=O)[C@H](CCCCN)NC(=O)[C@H](Cc1ccccc1)NC(=O)[C@@H](NC(=O)CNC(=O)CNC(=O)[C@H](CC(C)C)NC(=O)[C@@H](N)Cc1ccccc1)C(C)C)C(=O)N[C@@H](C)C(=O)N[C@@H](CO)C(=O)N[C@@H](CCCCN)C(=O)N[C@H](C(=O)N[C@@H](Cc1ccccc1)C(=O)N1CCC[C@H]1C(=O)N[C@@H](C)C(=O)N[C@H](C(=O)N[C@@H](Cc1ccccc1)C(=O)NCC(=O)N[C@@H](CCCCN)C(=O)N[C@H](C(=O)O)C(C)C)C(C)C)C(C)C [FLGGVFKLASKVFPAVFGKV]
1.86 µM,7.43 µM,29.7 µM,,CC(C)C[C@H](NC(=O)[C@H](CCCCN)NC(=O)[C@H](Cc1ccccc1)NC(=O)[C@@H](NC(=O)[C@@H](NC(=O)CNC(=O)[C@H](CC(C)C)NC(=O)[C@@H](N)Cc1ccccc1)C(C)C)C(C)C)C(=O)N[C@@H](C)C(=O)N[C@@H](CO)C(=O)N[C@@H](CCCCN)C(=O)N[C@H](C(=O)N[C@@H](Cc1ccccc1)C(=O)N1CCC[C@H]1C(=O)N[C@@H](C)C(=O)N[C@H](C(=O)N[C@@H](Cc1ccccc1)C(=O)NCC(=O)N[C@@H](CCCCN)C(=O)N[C@H](C(N)=O)C(C)C)C(C)C)C(C)C [FLGVVFKLASKVFPAVFGKV]
0.663 µM,,39.1 µM,1.22 µM,CC[C@H](C)[C@H](NC(=O)[C@H](CC(C)C)NC(=O)[C@H](C)NC(=O)[C@H](CC(C)C)NC(=O)[C@H](CC(C)C)NC(=O)CN)C(=O)N[C@@H](CO)C(=O)N[C@@H](Cc1c[nH]c2ccccc12)C(=O)N[C@H](C(=O)N[C@@H](CCCCN)C(=O)N[C@@H](CCCN=C(N)N)C(=O)N[C@@H](CCCCN)C(=O)N[C@@H](CCCN=C(N)N)C(=O)N[C@@H](CCC(N)=O)C(=O)N[C@@H](CCC(N)=O)C(N)=O)[C@@H](C)CC [GLLALISWIKRKRQQ]
